Test results reported in patent US10428080B2, “TBK/IKK inhibitor compounds and uses thereof” (Merck Patent GmbH, priority 2015, dated 2019).
Structures can show the parent of a compound that is named as a salt. Where two headings read alike, the source gives them in different places.

Columns and labels:
TBK1 = molecular target: T1, TBK1 (Homo sapiens, UniProt Q9UHD2); assay: TBK Biochemical Assay; conditions: read-out: TBK1 IC50
T1 sequence (Q9UHD2 1-729): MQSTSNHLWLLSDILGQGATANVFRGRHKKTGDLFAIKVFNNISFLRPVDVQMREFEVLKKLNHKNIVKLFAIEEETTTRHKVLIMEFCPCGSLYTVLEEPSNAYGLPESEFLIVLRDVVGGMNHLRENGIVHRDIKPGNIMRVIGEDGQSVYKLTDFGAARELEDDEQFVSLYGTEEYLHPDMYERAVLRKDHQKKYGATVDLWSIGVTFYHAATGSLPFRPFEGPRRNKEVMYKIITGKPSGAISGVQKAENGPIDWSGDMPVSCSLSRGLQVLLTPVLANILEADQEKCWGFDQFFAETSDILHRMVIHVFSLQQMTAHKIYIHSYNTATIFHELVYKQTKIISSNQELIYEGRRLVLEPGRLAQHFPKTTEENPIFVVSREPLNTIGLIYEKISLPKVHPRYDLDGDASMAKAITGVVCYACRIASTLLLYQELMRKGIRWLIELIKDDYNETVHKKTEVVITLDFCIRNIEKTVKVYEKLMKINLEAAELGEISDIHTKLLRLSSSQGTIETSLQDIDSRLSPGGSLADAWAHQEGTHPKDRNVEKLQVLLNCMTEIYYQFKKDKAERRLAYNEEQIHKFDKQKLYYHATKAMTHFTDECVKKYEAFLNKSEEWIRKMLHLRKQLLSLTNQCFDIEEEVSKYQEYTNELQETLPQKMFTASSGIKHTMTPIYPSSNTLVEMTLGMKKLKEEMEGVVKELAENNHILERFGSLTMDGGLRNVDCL
In short: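 Caliper LabChip mobility-shift readout of substrate and product after 90 min of TBK1 reaction at 25° C and stop-buffer addition. Compounds tested in 1:4 serial dilution over 10 points from 30 uM final at 1% DMSO; staurosporine 10 uM final defines full inhibition.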

IKKε = molecular target: T2, IKKε (Homo sapiens, UniProt Q14164); assay: IKKe Biochemical Assay; conditions: read-out: IKKε IC50
T2 sequence (Q14164 1-716): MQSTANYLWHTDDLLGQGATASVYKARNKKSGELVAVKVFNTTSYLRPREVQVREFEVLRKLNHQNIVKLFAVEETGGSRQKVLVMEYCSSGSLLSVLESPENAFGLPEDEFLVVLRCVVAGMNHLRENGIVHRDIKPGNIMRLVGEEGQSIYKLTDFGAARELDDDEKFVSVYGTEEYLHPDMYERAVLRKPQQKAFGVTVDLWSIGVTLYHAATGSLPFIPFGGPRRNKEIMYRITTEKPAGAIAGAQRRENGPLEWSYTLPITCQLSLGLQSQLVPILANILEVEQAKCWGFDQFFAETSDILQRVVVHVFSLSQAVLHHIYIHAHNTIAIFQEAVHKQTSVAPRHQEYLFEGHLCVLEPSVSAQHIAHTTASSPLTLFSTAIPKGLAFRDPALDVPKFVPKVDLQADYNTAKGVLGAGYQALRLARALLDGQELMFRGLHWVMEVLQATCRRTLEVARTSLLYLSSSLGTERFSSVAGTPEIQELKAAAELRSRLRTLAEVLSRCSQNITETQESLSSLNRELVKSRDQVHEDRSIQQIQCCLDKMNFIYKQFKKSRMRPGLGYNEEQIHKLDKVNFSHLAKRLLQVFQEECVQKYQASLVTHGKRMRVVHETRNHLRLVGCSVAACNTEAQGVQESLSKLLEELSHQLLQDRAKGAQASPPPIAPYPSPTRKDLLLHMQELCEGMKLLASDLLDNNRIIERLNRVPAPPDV
In short: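 Activity was measured as mobility-shift separation of phosphorylated from unphosphorylated substrate on a LabChip EZ Reader. Compound was titrated from 30 uM final in 10 points, 1:4 steps, with 1% DMSO, and enzyme plus substrate reacted 90 min at 25° C before stop buffer. Control wells held 10 uM staurosporine.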

[1] = tested on: phosphorylation of the IRF-3 protein in MDA-MB-468 cells; assay: pIRF3 immunocytochemistry cell based assay
In short: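 After 2 h stimulation with Poly(I:C) (10 ug/ml), following 1 h compound pre-treatment (10-point, 3-fold dilution, top 10 uM), MDA-MB-468 cells were fixed and stained with anti-pIRF3 antibody. pIRF3 fluorescence was normalized to PI staining or cell count on an Acumen cytometer. IC50 curves were derived from this.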

[2] = Homo sapiens, MDA-MB-468, read-out: pIRF3 IC50
[3] = Homo sapiens, MDA-MB-468 cells, Poly(I:C) stimulation, read-out: pIRF3 IC50

| IC50 (TBK1) | IC50 (IKKε) | IC50 [1, 3] | IC50 ([1]; MDA-MB-468 cells, Poly(I:C) stimulation, read-out: pIRF3 IC50) | SMILES | IC50 [1, 2] |
| --- | --- | --- | --- | --- | --- |
| < 100 nM | < 100 nM | < 100 nM | – | COc1cc(C(=O)N2CC3CCC(C2)O3)ccc1-c1cc2nccc(-c3ccc(OC4CCOCC4)c(C#N)c3)c2o1 [Compound 58, 5-{2-[2-Methoxy-4-(8-oxa-3-aza-bicyclo[3.2.1]octane-3-carbonyl)-phenyl]-furo[3,2-b]pyridin-7-yl}-2-(tetrahydro-pyran-4-yloxy)-benzonitrile] | – |
| < 100 nM | < 100 nM | 100 to 1000 nM | – | COc1cc(C(=O)N2CC3C2CCN3C)cnc1-c1cc2nccc(-c3ccc(OC4CCOCC4)c(C#N)c3)c2o1 (stereo not drawn) [Compound 405, 5-[2-[3-methoxy-5-([2-methyl-2,6-diazabicyclo[3.2.0]heptan-6-yl]carbonyl)pyridin-2-yl]furo[3,2-b]pyridin-7-yl]-2-(oxan-4-yloxy)benzonitrile hydrochloride] | – |
| < 100 nM | < 100 nM | 100 to 1000 nM | – | COc1cc(C(=O)N(C)CCO)ccc1-c1cc2ncc(F)c(-c3ccc(NC4CCOCC4)c(C#N)c3)c2o1 [Compound 296, 4-(7-[3-cyano-4-[(oxan-4-yl)amino]phenyl]-6-fluorofuro[3,2-b]pyridin-2-yl)-N-(2-hydroxyethyl)-3-methoxy-N-methylbenzamide] | – |
| < 100 nM | < 100 nM | < 100 nM | – | COc1cc(C(=O)N2CC[C@@H](N(C)C)C2)cnc1-c1cc2nccc(-c3ccc(N4CC[C@H](F)C4)c(C#N)c3)c2o1 [Compound 455, 5-[2-(5-[[(3R)-3-(dimethylamino)pyrrolidin-1-yl]carbonyl]-3-methoxypyridin-2-yl) (S)-furo[3,2-b]pyridin-7-yl]-2-(3-fluoropyrrolidin-1-yl)benzonitrile] | – |
| < 100 nM | < 100 nM | 100 to 1000 nM | – | COc1cc(C(=O)N(C)C)ccc1-c1cc2nccc(-c3ccc(OC4CCN(C)CC4)c(C#N)c3)c2o1 [Compound 150, 4-{7-[3-Cyano-4-(1-methyl-piperidin-4-yloxy)-phenyl]-furo[3,2-b]pyridin-2-yl}-3-methoxy-N,N-dimethyl-benzamide] | – |
| < 100 nM | < 100 nM | 100 to 1000 nM | – | COc1cc(C(=O)NC2(C#N)CCN(C)C2)ccc1-c1cc2nccc(-c3ccc(OC4CCOCC4)c(C#N)c3)c2o1 (stereo not drawn) [Compound 349, N-(3-cyano-1-methylpyrrolidin-3-yl)-4-[7-[3-cyano-4-(oxan-4-yloxy)phenyl]furo[3,2-b]pyridin-2-yl]-3-methoxybenzamide] | – |
| < 100 nM | < 100 nM | 1000 to 5000 nM | – | N#Cc1cc(-c2ccnc3cc(-c4cnn(C5COC5)c4)oc23)ccc1OC1CCOCC1 [Compound 138] | – |
| < 100 nM | < 100 nM | 100 to 1000 nM | – | COc1cc(C(=O)N(C)C)ccc1-c1cc2nccc(-c3ccc(OCC4CCOC4)c(C#N)c3)c2o1 (stereo not drawn) [Compound 93, 4-{7-[3-Cyano-4-(tetrahydro-furan-3-ylmethoxy)-phenyl]-furo[3,2-b]pyridin-2-yl}-3-methoxy-N,N-dimethyl-benzamide] | – |
| < 100 nM | < 100 nM | 100 to 1000 nM | – | COc1cc(C(=O)N2CC3(CCCN3)C2)ccc1-c1cc2nccc(-c3ccc(OC4CCOCC4)c(C#N)c3)c2o1 [Compound 29, 5-{2-[4-(2,5-Diaza-spiro[3.4]octane-2-carbonyl)-2-methoxy-phenyl]-furo[3,2-b]pyridin-7-yl}-2-(tetrahydro-pyran-4-yloxy)-benzonitrile hydrochloride] | – |
| < 100 nM | < 100 nM | – | < 100 nM | COc1cc(C(=O)N2CCCCC2)ncc1-c1cc2nccc(-c3ccc(N4CC[C@@H](F)C4)c(C#N)c3)c2o1 (stereo in doubt) [Compound 385] | – |
| < 100 nM | < 100 nM | < 100 nM | – | COc1cc(C(=O)N2CCCCC2)ncc1-c1cc2nccc(-c3ccc(N4CCC(F)C4)c(C#N)c3)c2o1 (stereo in doubt) [Compound 384, 2-((S)-3-Fluoro-pyrrolidin-1-yl)-5-{2-[4-methoxy-6-(piperidine-1-carbonyl)-pyridin-3-yl]-furo[3,2-b]pyridin-7-yl}-benzonitrile] | – |
| 1000 to 5000 nM | 1000 to 5000 nM | 100 to 1000 nM | – | COc1cc(C(=O)N(C)C)ncc1-c1cc2nccc(-c3ccc(OC4CCN(C(C)C)C4)c(C#N)c3)c2o1 (stereo not drawn) [Compound 428, 5-[7-(3-cyano-4-[[1-(propan-2-yl)pyrrolidin-3-yl]oxy]phenyl)furo[3,2-b]pyridin-2-yl]-4-methoxy-N,N-dimethylpyridine-2-carboxamide] | – |
| < 100 nM | < 100 nM | 100 to 1000 nM | – | COc1cc(C(=O)NC2CCN(C(=O)OC(C)(C)C)C2)ccc1-c1cc2nccc(-c3ccc(OC4CCOCC4)c(C#N)c3)c2o1 (stereo not drawn) [Compound 125, 3-(4-{7-[3-Cyano-4-(tetrahydro-pyran-4-yloxy)-phenyl]-furo[3,2-b]pyridin-2-yl}-3-methoxy-benzoylamino)-pyrrolidine-1-carboxylic acid tert-butyl ester] | – |
| < 100 nM | < 100 nM | 100 to 1000 nM | – | COc1cc(C(=O)N2CCC(O)C2)ccc1-c1cc2nccc(-c3ccc(OC4CCOCC4)c(C#N)c3)c2o1 (stereo not drawn) [Compound 492, 5-{2-[4-(3-Hydroxy-pyrrolidine-1-carbonyl)-2-methoxy-phenyl]-furo[3,2-b]pyridin-7-yl}-2-(tetrahydro-pyran-4-yloxy)-benzonitrile] | – |

| SMILES | IC50 (TBK1) | IC50 (IKKε) | IC50 [1, 3] | IC50 ([1]; MDA-MB-468 cells, Poly(I:C) stimulation, read-out: pIRF3 IC50) | IC50 [1, 2] |
| --- | --- | --- | --- | --- | --- |
| COc1cc(C(=O)N[C@H]2COC[C@@H]2N(C)C)ccc1-c1cc2nccc(-c3ccc(OC4CCOCC4)c(C#N)c3)c2o1 [Compound 346, 4-[7-[3-cyano-4-(oxan-4-yloxy)phenyl]furo[3,2-b]pyridin-2-yl]-N-[(3R,4R)-4-(dimethylamino)oxolan-3-yl]-3-methoxy benzamide] | < 100 nM | < 100 nM | – | – | 100 to 1000 nM |
| COc1cc(C(=O)NC2CN3CCC2CC3)ccc1-c1cc2nccc(-c3ccc(OC4CCOCC4)c(C#N)c3)c2o1 (stereo not drawn) [Compound 79, N-(1-Aza-bicyclo[2.2.2]oct-3-yl)-4-{7-[3-cyano-4-(tetrahydro-pyran-4-yloxy)-phenyl]-furo[3,2-b]pyridin-2-yl}-3-methoxy-benzamide] | < 100 nM | < 100 nM | 100 to 1000 nM | – | – |
| COc1cc(C(=O)NC2CN3CCC2CC3)ccc1-c1cc2nccc(-c3ccc(N4CC[C@@H](F)C4)c(C#N)c3)c2o1 (stereo partly drawn) [Compound 146, N-(1-Aza-bicyclo[2.2.2]oct-3-yl)-4-{7-[3-cyano-4-((R)-3-fluoro-pyrrolidin-1-yl)-phenyl]-furo[3,2-b]pyridin-2-yl}-3-methoxy-benzamide] | < 100 nM | < 100 nM | 100 to 1000 nM | – | – |
| COc1c(C(=O)N(C)C)nn(C)c1-c1cc2nccc(-c3ccc(OC4CCOCC4)c(C#N)c3)c2o1 [Compound 401, 5-[7-[3-cyano-4-(oxan-4-yloxy)phenyl]furo[3,2-b]pyridin-2-yl]-4-methoxy-N,N,1-trimethyl-1H-pyrazole-3-carboxamide hydrochloride] | < 100 nM | < 100 nM | – | – | 100 to 1000 nM |
